Laboratory results from patent US20150065343A1, “Acrylamide compounds for combating invertebrate pests” (priority 2012, published 2015).

Columns and labels:
Type in all cases: in vivo
[1] = tested on: Diamond back moth (Plutella xylostella); assay: B.2 Diamond back moth leaf-dip test on Chinese cabbage; details: dipped Chinese cabbage leaves, mortality recorded 24, 72 and 120 hours after treatment, read-out: mortality in comparison with untreated controls
Experimental: B.2 Diamond back moth (Plutella xylostella)
Leaves of Chinese cabbage were dipped in test solution and air-dried. Treated leaves were placed in petri dished lined with moist filter paper. Mortality was recorded 24, 72, and 120 hours after treatment.

[2] = tested on: Green peach aphid (Myzus persicae); assay: B.3 Green peach aphid systemic test, artificial diet in 96-well plates; details: 72 h, adult aphids, 3 days, read-out: mortality in comparison with untreated controls
Excerpt: B.3 Green peach aphid (Myzus persicae)
For evaluating control of green peach aphid (Myzus persicae) through systemic means the test unit consisted of 96-well-microtiter plates containing liquid artificial diet under an artificial membrane.
The compounds were formulated using a solution containing 75% v/v water and 25% v/v DMSO. Different concentrations of formulated compounds were pipetted into the aphid diet, using a custom built pipetter, at two replications.
After application, 5-8 adult aphids were placed on the artificial membrane inside the microtiter plate wells. The aphids were then allowed to suck on the treated aphid diet and incubated at about 23+1° C. and about 50+5% relative humidity for 3 days. Aphid mortality and fecundity was then visually assessed.

[3] = tested on: Mediterranean fruitfly (Ceratitis capitata); assay: B.4 Mediterranean fruitfly microtiter plate test on insect diet with eggs; details: 120 h, sprayed onto insect diet at 5 μl, egg and larval mortality after 5 days, read-out: mortality in comparison with untreated controls
Experimental: B.4 Mediterranean fruitfly (Ceratitis capitata)
For evaluating control of Mediterranean fruitfly (Ceratitis capitata) the test unit consisted of microtiter plates containing an insect diet and 50-80 C. capitate eggs.
The compounds were formulated using a solution containing 75% v/v water and 25% v/v DMSO. Different concentrations of formulated compounds were sprayed onto the insect diet at 5 μl, using a custom built micro atomizer, at two replications.
(§1) After application, microtiter plates were incubated at about 28±1° C. and about 80±5% relative humidity for 5 days. Egg and larval mortality was then visually assessed.

[4] = tested on: Orchid thrips (dichromothrips corbetti); assay: B.5 Orchid thrips floral-immersion test; details: 96 h, adult thrips, after 4 days, read-out: mortality in comparison with untreated controls
Experimental: B.5 Orchid thrips (dichromothrips corbetti)
Dichromothaps corbetti adults used for bioassay were obtained from a colony maintained continuously under laboratory conditions. For testing purposes, the test compound was diluted to a concentration of 500 ppm (wt compound: vol diluent) in a 1:1 mixture of acetone:water (vol:vol), plus 0.01% vol/vol Kinetic® surfactant.
Thrips potency of each compound was evaluated by using a floral-immersion technique. Plastic petri dishes were used as test arenas. All petals of individual, intact orchid flowers were dipped into treatment solution and allowed to dry. Treated flowers were placed into individual petri dishes along with 10-15 adult thrips. The petri dishes were then covered with lids. All test arenas were held under continuous light and a temperature of about 28° C. for duration of the assay. After 4 days, the numbers of live thrips were counted on each flower, and along inner walls of each petri dish. The level of thrips mortality was extrapolated from pre-treatment thrips numbers.

[5] = tested on: Silverleaf whitefly (bernisia argentifolii); assay: B.6 Silverleaf whitefly spray test on cotton plants; details: Bemisia argentifolii, 72 h, sprayed cotton plants, whitefly adults, 3 days after treatment, read-out: mortality in comparison with untreated controls
Excerpt: B.6 Silverleaf whitefly (bernisia argentifolii)
(§2) The active compounds were formulated in cyclohexanone as a 10,000 ppm solution supplied in tubes. The tubes were inserted into an automated electrostatic sprayer equipped with an atomizing nozzle and they served as stock solutions for which lower dilutions were made in 50% acetone:50% water (v/v). A nonionic surfactant (Kinetic®) was included in the solution at a volume of 0.01% (v/v).
Cotton plants at the cotyledon stage (one plant per pot) were sprayed by an automated electrostatic plant sprayer equipped with an atomizing spray nozzle. The plants were dried in the sprayer fume hood and then removed from the sprayer. Each pot was placed into a plastic cup and about 10 to 12 whitefly adults (approximately 3-5 days old) were introduced. The insects were collected using an aspirator and a nontoxic Tygon® tubing connected to a barrier pipette tip. The tip, containing the collected insects, was then gently inserted into the soil containing the treated plant, allowing insects to crawl out of the tip to reach the foliage for feeding. Cups were covered with a reusable screened lid. […] Mortality was assessed 3 days after treatment, compared to untreated control plants.

[6] = tested on: Southern armyworm (Spodoptera eridania); assay: B.7 Southern armyworm spray test on lima bean plants; details: foliar, 96 h, sprayed lima bean foliage, armyworm larvae, 4 days after treatment, read-out: mortality in comparison with untreated controls
Experimental: B.7 Southern armyworm (Spodoptera eridania)
as §2
Lima bean plants (variety Sieva) were grown 2 plants to a pot and selected for treatment at the 1st true leaf stage. Test solutions were sprayed onto the foliage by an automated electrostatic plant sprayer equipped with an atomizing spray nozzle. The plants were dried in the sprayer fume hood and then removed from the sprayer. Each pot was placed into perforated plastic bags with a zip closure. About 10 to 11 armyworm larvae were placed into the bag and the bags zipped closed. Test plants were maintained in a growth room at about 25° C. and about 20-40% relative humidity for 4 days, avoiding direct exposure to fluorescent light (24 hour photoperiod) to prevent trapping of heat inside the bags. Mortality and reduced feeding were assessed 4 days after treatment, compared to untreated control plants.

[7] = tested on: Vetch aphid (Megoura viciae); assay: B.8 Vetch aphid test on broad bean leaf disks in 24-well plates; details: foliar, 120 h, sprayed onto leaf disks at 2.5 μl, adult aphids, 5 days, read-out: mortality in comparison with untreated controls
Experimental: B.8 Vetch aphid (Megoura viciae)
For evaluating control of vetch aphid (Megoura viciae) through contact or systemic means the test unit consisted of 24-well-microtiter plates containing broad bean leaf disks.
The compounds were formulated using a solution containing 75% v/v water and 25% v/v DMSO. Different concentrations of formulated compounds were sprayed onto the leaf disks at 2.5 μl, using a custom built micro atomizer, at two replications.
After application, the leaf disks were air-dried and 5-8 adult aphids placed on the leaf disks inside the microtiter plate wells. The aphids were then allowed to suck on the treated leaf disks and incubated at about 23±1° C. and about 50±5% relative humidity for 5 days. Aphid mortality and fecundity was then visually assessed.

[8] = tested on: Tobacco budworm (Heliothis virescens); assay: B.9 Tobacco budworm microtiter plate test on insect diet with eggs; details: 120 h, sprayed onto insect diet at 10 μl, egg and larval mortality after 5 days, read-out: mortality in comparison with untreated controls
Experimental: B.9 Tobacco budworm (Heliothis virescens) HELVI
For evaluating control of tobacco budworm (Heliothis virescens) the test unit consisted of 96-well-microtiter plates containing an insect diet and 15-25 H. virescens eggs.
The compounds were formulated using a solution containing 75% v/v water and 25% v/v DMSO. Different concentrations of formulated compounds were sprayed onto the insect diet at 10 μl, using a custom built micro atomizer, at two replications.
as §1

[9] = tested on: Boll weevil (Anthonomus grandis); assay: B.10 Boll weevil microtiter plate test on insect diet with eggs; details: 120 h, sprayed onto insect diet at 20 μl, egg and larval mortality after 5 days, read-out: mortality in comparison with untreated controls
Experimental: B.10 Boll weevil (Anthonomus grandis)
For evaluating control of boll weevil (Anthonomus grandis) the test unit consisted of 24-well-microtiter plates containing an insect diet and 20-30 A. grandis eggs.
The compounds were formulated using a solution containing 75% v/v water and 25% v/v DMSO. Different concentrations of formulated compounds were sprayed onto the insect diet at 20 μl, using a custom built micro atomizer, at two replications.
After application, microtiter plates were incubated at about 23±1° C. and about 50±5% relative humidity for 5 days. Egg and larval mortality was then visually assessed.

CNC(=O)N/N=C/c1sc(/C=C/C(=O)NC(c2cccc(C(F)(F)F)c2)C(F)(F)F)cc1C (centres unmarked) [Compound 1-1, (E)-3-[4-methyl-5-[(E)-(methylcarbamoylhydrazono)methyl]-2-thienyl]-N-[2,2,2-trifluoro-1-[3-(trifluoromethyl)phenyl]ethyl]prop-2-enamide]
≥ 75%: mortality at 500 ppm [1] | mortality at 2500 ppm [2] | mortality at 2500 ppm [3] | mortality at 500 ppm [4] | mortality at 300 ppm [5] | mortality at 300 ppm [6] | mortality at 2500 ppm [7] | mortality at 2500 ppm [8] | mortality at 2500 ppm [9]

Cc1cc(/C=C/C(=O)NC(c2cccc(C(F)(F)F)c2)C(F)(F)F)sc1C(=O)NC1CC1 (centres unmarked) [Compound 2-1, N-cyclopropyl-3-methyl-5-[(E)-3-oxo-3-[[2,2,2-trifluoro-1-[3-(trifluoromethyl)phenyl]-ethyl]amino]prop-1-enyl]thiophene-2-carboxamide]
≥ 75%: mortality at 500 ppm [1] | mortality at 2500 ppm [2] | mortality at 2500 ppm [3] | mortality at 500 ppm [4] | mortality at 300 ppm [6] | mortality at 2500 ppm [7] | mortality at 2500 ppm [8] | mortality at 2500 ppm [9]

CCN(Cc1sc(/C=C/C(=O)NC(c2cccc(C(F)(F)F)c2)C(F)(F)F)cc1C)C(=O)CS(C)(=O)=O (centres unmarked) [Compound 3-1, (E)-3-[5-[[Ethyl-(2-methylsulfonylacetyl)amino]methyl]-4-methyl-2-thienyl]-N-[2,2,2-trifluoro-1-[3-(trifluoromethyl)phenyl]ethyl]prop-2-enamide]
≥ 75%: mortality at 2500 ppm [2] | mortality at 500 ppm [4] | mortality at 300 ppm [6] | mortality at 2500 ppm [9]

CSCC(=O)NCc1sc(/C=C/C(=O)NC(c2cccc(C(F)(F)F)c2)C(F)(F)F)cc1C (centres unmarked) [Compound 3-6, (E)-3-[4-Methyl-5-[[(2-methylsulfanylacetyl)amino]methyl]-2-thienyl]-N-[2,2,2-trifluoro-1-[3-(trifluoromethyl)phenyl]ethyl]prop-2-enamide]
≥ 75%: mortality at 2500 ppm [2] | mortality at 500 ppm [4] | mortality at 2500 ppm [9]

Cc1sc(/C=C/C(=O)NC(c2cccc(C(F)(F)F)c2)C(F)(F)F)cc1C(=O)NC1CC1 (centres unmarked) [Compound 4-1, N-Cyclopropyl-2-methyl-5-[(E)-3-oxo-3-[[2,2,2-trifluoro-1-[3-(trifluoromethyl)phenyl]-ethyl]amino]prop-1-enyl]thiophene-3-carboxamide]
≥ 75%: mortality at 2500 ppm [2] | mortality at 2500 ppm [3] | mortality at 300 ppm [5] | mortality at 300 ppm [6] | mortality at 2500 ppm [9]
